{"source": "patent US9636317B2", "about": "“Compositions and methods of use of phorbol esters” (priority 2007, dated 2017)", "key": {"[1]": {"test_system": "S180 cell-injected mice", "assay": "Effect of TPA on peripheral WBC and Hb counts in S180 cell-injected mice", "settings": "for WBC counts: second day after treatment", "experimental": "Sarcoma 180 (S180) cells were injected into Kwen-Ming mice. On the third day, the mice were given TPA interperitoneally (i.p.). at 50, 100 or 200 μg/kg/day for 7 days. On the second day after the treatment was completed, blood samples were taken from the tails of the treated mice for WBC and Hb analyses."}, "[2]": {"test_system": "symptomatic HIV patients", "assay": "First clinical study of HIV+ patients: symptoms and side effects (incl. case studies)", "type": "in vivo, human", "experimental": "Twelve symptomatic patients (five males and seven females) between the ages of 35 to 52 all of whom were infected with HIV in 1995 through blood transfusion and were refractory to standard treatments for HIV were treated with TPA. Each patient was administered a weight adjusted dosage of TPA (75 μg/sq m) in 200 ml of sterile saline by i.v. over one hour. This dose was administered once daily for the first three days of treatment. Each patient was then given this dose every other day for days 4 to 18 followed by a six month rest period prior to a second course of treatment according to the same protocol.\nResults of treatment of initially symptomatic AIDS patients treated with TPA according to the protocols of Example III, IV, and V. Patients who participated in multiple studies are in some cases identified by more than one patient number. All patient identification numbers correspond to the patient numbers in Tables 1-7."}, "[3]": {"test_system": "HIV", "assay": "Second clinical study of HIV+ patients: blood HIV count", "type": "in vivo", "settings": "for BLOOD HIV COUNT LOG VALUE / BLOOD HIV COUNT RESULTS: one value per patient", "experimental": "Nine of the patients in Example III were given a second treatment of TPA. Of these nine, seven were asymptomatic at the beginning of the second trial. A tenth patient (patient #2a) who was symptomatic and had not previously been treated with TPA was added to the study. Each patient was administered a weight adjusted dosage of TPA (75 μg/sq m) in 200 ml of sterile saline intravenously over one hour. This dosage was given to each patient once a day for ten consecutive days followed by a rest period of ten days for three cycles and a total of 30 doses of TPA. Patients 5a, 6a, and 8a stopped taking anti-AIDS drugs one month prior to beginning the TPA treatment and beginning again one month after the third cycle. Patients 1-4-a, 7a, and 9a-10a continued taking anti-AIDS drugs throughout the treatment.\nBlood samples were taken three days prior to starting treatment, after completing the first 10 day cycle of TPA infusion and again after the last TPA infusion and CD3, CD4, CD8, WBC, RBC, HGB and platelets were measured."}, "[4]": {"test_system": "primary AML cells", "assay": "Primary AML cultures ex vivo: cell viability, apoptosis assays and Western analysis of ERK", "type": "cell-based, human", "text": "In addition to protein kinase C and ERK activation, TPA is a known inducer of NF-κB, a pro-survival transcription factor often constitutively active in AML blasts and leukemic stem cells."}, "[5]": {"assay": "Treatment of Parkinson's disease (patient case)", "type": "in vivo, human", "settings": "0.19, 0.24, 0.26 mg TPA every other day over 9 weeks", "experimental": "Patient two was diagnosed with Parkinson's disease. They were injected with 1 ampoule containing 0.19 mg of TPA (0.125 mg/m^2) TPA every other day for four weeks, then 0.24 mg of TPA (1.25×0.125 mg/m^2) every other day for 2 weeks, and 0.26 mg of TPA (1.5×0.125 mg/m^2) every other day for an additional 3 weeks."}, "[6]": {"assay": "Treatment of urinary incontinence (patient cases)", "type": "in vivo, human", "text": "Patient twelve has suffered from urinary incontinence for more than 30 years.\nPatient one has suffered from urinary incontinence for fifteen years."}, "[7]": {"test_system": "HIV-cytopathic effects on MT-4 cells", "settings": "cited from earlier work"}, "[8]": {"settings": "TPA 50 μg/kg/day i.p. for 7 days"}, "[9]": {"settings": "TPA 100 μg/kg/day i.p. for 7 days"}, "[10]": {"settings": "TPA 200 μg/kg/day i.p. for 7 days"}, "[11]": {"settings": "protocol of Example III (first or repeat course)"}, "[12]": {"settings": "protocol of Example III (first or repeat course), individual patients"}, "[13]": {"settings": "twelve symptomatic HIV patients"}}, "note": "“And” between values parts separate entries of the source, which are not always exact repeats. Identical values can stand only once. “Also recorded” adds a separate entry of the source."}
{"smiles": "CCCCCCCCCCCCCC(=O)O[C@@H]1[C@@H](C)[C@@]2(O)[C@@H](C=C(CO)C[C@]3(O)C(=O)C(C)=C[C@@H]23)[C@@H]2C(C)(C)[C@]12OC(C)=O", "note": "[TPA, 12-O-tetradecanoylphorbol-13-acetate]", "values": [{"measurement": "Hb", "setting": "[1]; [8]", "result": "136 ± 11", "unit": "g/L"}, {"measurement": "WBC counts", "setting": "[1]; [8]", "result": "16.1±7.4 ×10^9/L"}, {"measurement": "Hb", "setting": "[1]; [9]", "result": "149 ± 12", "unit": "g/L"}, {"measurement": "WBC counts", "setting": "[1]; [9]", "result": "18.7±3.0 ×10^9/L"}, {"measurement": "Hb", "setting": "[1]; [10]", "result": "149 ± 10", "unit": "g/L"}, {"measurement": "WBC counts", "setting": "[1]; [10]", "result": "20.7±3.4 ×10^9/L"}, {"measurement": "duration of shortness of breath", "setting": "[2]; first treatment with TPA, individual patients", "result": 15, "unit": "min"}, {"measurement": "platelet count after TPA treatment", "setting": "[2]; patient #10, rose from 30,000", "result": "110,000 per microliter"}, {"measurement": "other side effects during TPA treatment (individual patient)", "setting": "[2]; protocol of Example III", "result": "did not experience an increase in body temperature or any other side effect; also recorded: mild dizziness and headache; also recorded: serious skin irritation; also recorded: skin irritation due to a leaking needle"}, {"measurement": "symptom free period after TPA therapy (individual patient)", "setting": "[2]; [11]", "result": "five months; also recorded: one year"}, {"measurement": "symptoms after treatment with TPA (individual patient)", "setting": "[2]; [11]", "result": "gradual improvement in symptoms; also recorded: their oral lesions, skin thrush and fever disappeared; also recorded: marked improvement in their symptoms; also recorded: The lymph node returned to normal size; also recorded: no improvement in symptoms occurred; also recorded: their symptoms remained unchanged; also recorded: the frequency of their colds decreased; also recorded: their diarrhea was completely gone; also recorded: their dizziness, headache and diarrhea gradually lessened; also recorded: the dizziness, headache, fever and skin thrush were improving and gradually faded away; also recorded: their symptoms disappeared completely; also recorded: all their symptoms disappeared"}, {"measurement": "duration of the increase in body temperature", "setting": "[2]; [12]", "result": "1-2 hours and four and 4 hours"}, {"measurement": "increase in body temperature during TPA treatment", "setting": "[2]; [12]", "result": "38-39 °C and 38 °C and 38.5 °C"}, {"measurement": "additional patients with a decrease in symptoms", "setting": "[2]; [13]", "result": "Three additional patients had a decrease in symptoms"}, {"measurement": "patients who became symptom free", "setting": "[2]; [13]", "result": "Eight patients became symptom free"}, {"measurement": "patients with significant improvement following treatment", "setting": "[2]; twelve symptomatic HIV patients, 75 μg/sq m i.v.", "result": "eleven of the patients showed significant improvement"}, {"measurement": "BLOOD HIV COUNT LOG VALUE", "setting": "[3]; after first cycle TPA infusion", "result": "5.490 and 2.371 and 4.825 and 5.217 and 5.450 and 5.475"}, {"measurement": "BLOOD HIV COUNT RESULTS", "setting": "[3]; after first cycle TPA infusion", "result": "3.09 × 10^5 copies/ml and lower the 500 copies/ml and undetectable (4×) and 6.68 × 10^4 copies/ml and 1.65 × 10^5 copies/ml and 2.82 × 10^5 copies/ml and 2.99 × 10^5 copies/ml"}, {"measurement": "BLOOD HIV COUNT LOG VALUE", "setting": "[3]; after third cycle TPA infusion", "result": "5.966 and 3.980 and 3.376 and 4.792 and 5.371 and 5.270 and 5.973"}, {"measurement": "BLOOD HIV COUNT RESULTS", "setting": "[3]; after third cycle TPA infusion", "result": "9.24 × 10^5 copies/ml and 9.55 × 10^3 copies/ml and 2.38 × 10^3 copies/ml and undetectable (3×) and 6.20 × 10^4 copies/ml and 2.35 × 10^5 copies/ml and 1.86 × 10^5 copies/ml and 9.41 × 10^5 copies/ml"}, {"measurement": "viral load of HIV (summary)", "setting": "[3]; ten patients", "result": "undetectable in three patients (<200); it increased somewhat in six others and was reduced in one"}, {"measurement": "cytotoxic effect (cell viability and apoptosis assays)", "setting": "[4]; AML cases", "result": "direct therapeutic cytotoxic effects in at least a subset of AML cases"}, {"measurement": "phospho-ERK pro-survival signal", "setting": "[4]; after 24 hour ex vivo exposure", "result": "loss of the phospho-ERK pro-survival signal"}, {"measurement": "ERK phosphorylation (Western analysis)", "setting": "[4]; all primary cultures analyzed, by 1 hour in culture", "result": "strongly induced ERK phosphorylation"}, {"measurement": "tremors", "setting": "[5]", "result": "no longer displaying tremors"}, {"measurement": "urinary frequency", "setting": "[6]; nine injections of 0.18 mg of TPA", "result": "regained normal urinary frequency"}, {"measurement": "urinary frequency", "setting": "[6]; six injections of 0.18 mg of TPA", "result": "regained normal urinary frequency"}, {"measurement": "HIV-cytopathic effects", "setting": "[7]", "result": "inhibit the HIV-cytopathic effects on MT-4 cells"}]}
